Source: patent US20240417408A1, “SMALL MOLECULE INHIBITORS OF KRAS G12C MUTANT” (MERCK SHARP & DOHME CORP., priority 2021, published 2024)

Columns and labels:
[1] = biological target: T1, Biotinylated KRAS G12C protein and GST-tagged Ras binding domain of c-RAF (Homo sapiens, UniProt P01116, C118S/C51S/C80L/G12C); assay: Test Example 5: RAS:RAF-RBD binding assay (TR-FRET); details: 30-minute incubation with compound, then GST-c-RAF RBD, read-out: cRaf IC50
T1 construct: biotin acceptor peptide (Avi-type, […]
T1 sequence (P01116 with tags, fused parts or gaps isoform P01116-2 G12C/C51S/C80L/C118S): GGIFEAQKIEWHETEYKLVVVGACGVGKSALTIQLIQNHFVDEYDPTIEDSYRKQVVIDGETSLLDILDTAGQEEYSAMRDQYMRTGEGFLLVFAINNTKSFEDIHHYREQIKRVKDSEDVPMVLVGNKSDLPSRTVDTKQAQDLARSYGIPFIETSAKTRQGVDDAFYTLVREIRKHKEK
Description: Test Example 5: Procedure for RAS:RAF-RBD Binding Assay
The RAF-Ras binding domain (RBD) protein interaction assay utilizes Biotinylated KRAS G12C protein (SEQ ID NO: 3) and the GST-tagged Ras binding domain of c-RAF (residues 50-132) from Jena Biosciences). Compounds are added to KRAS and then after a 30-minute incubation time the RAF-RBD and detection antibodies are added. Small molecule inhibitors that block the interaction of c-RAF-RBD prevent generation of a TR-FRET signal.
Biotinylated KRAS G12C protein is diluted to 20 nM in assay buffer (20 mM HEPES pH 7.5, 150 mM sodium chloride, 10 mM magnesium chloride, and 0.01% Tween20).
(§1) Each test compound (10 mM stock in DMSO) is diluted in DMSO to make a 10-point, 3-fold dilution series in a 384-well low dead volume microplate (Labcyte, catalog #LP-0200). Once titrations are made, 50 nL of the diluted compounds is acoustically dispensed into 384-well plates (Corning, catalog #3820) using an Echo 655 (Labcyte).
Each well of the assay plate receives 5 μL of Biotinylated KRAS G12C assay solution and is incubated at room temperature for 30 minutes. Each well then receives 5 μL of 100 nM GST-c-RAF RBD protein and a 1:100 dilution of both anti-GST-d2 (Cisbio catalog #61GSTDLA) and Strepavidin-Tb cryptate (Cisbio catalog #610SATLA) in assay buffer and the plate is mixed and briefly centrifuged followed by a 60 minute incubation at room temperature.
(§2) The time-resolved fluorescence resonance energy transfer signal of both plates is measured on an Envision (PerkinElmer) plate reader: dichroic mirror=LANCE/DELFIA DUAL/Bias; Emission1=615 nm; Emission2=665 nm; delay time=60 s. The signal of each well is determined as the ratio of the emission at 665 nm to that at 615 nm. Percent effect of each well is determined after normalization to control wells containing DMSO (no effect) or a saturating concentration of inhibitor (max effect). The apparent effect as a function of compound concentration is fit to a four-parameter logistic equation.

[2] = biological target: T2, biotinylated KRAS protein containing G12C/C51S/C80L/C118S mutations (SEQ ID NO: 3) (Homo sapiens, UniProt P01116, C118S/C51S/C80L/G12C); assay: Test Example 4: SOS-catalyzed nucleotide exchange assay (TR-FRET); assay type: biochemical; details: 60-minute incubation with compound, then SOS and GTP, read-out: GNE IC50
T2 construct: biotin acceptor peptide (Avi-type, […]
T2 sequence (P01116 with tags, fused parts or gaps isoform P01116-2 G12C/C51S/C80L/C118S): as above
Description: Test Example 4: Procedure for SOS-Catalyzed Nucleotide Exchange Assay
The SOS-catalyzed nucleotide exchange assay utilizes a preformed complex of recombinant biotinylated KRAS protein containing G12C/C51S/C80L/C118S mutations (SEQ ID NO: 3) (referred to as Biotinylated KRAS G12C protein hereafter), Bodipy-GDP, and Terbium-streptavidin. Compounds are added to this complex and then after a 60-minute incubation time the mixture is treated with SOS and unlabeled GTP. Small molecule inhibitors stabilize the Bodipy-GDP complex whereas the untreated protein rapidly exchanges Bodipy-GDP for unlabeled GTP resulting in reduced TR-FRET signal.
Biotinylated KRAS G12C protein is diluted to 2 μM in an EDTA buffer (20 mM HEPES, 50 mM sodium chloride, 10 mM EDTA, and 0.01% Tween) and incubated at room temperature for one hour. This mixture is then further diluted to 90 nM in an assay buffer (20 mM HEPES, 150 mM sodium chloride, 10 mM magnesium chloride, and 0.005% Tween) containing 15 nM of Terbium-Streptavidin (Invitrogen, catalog #PV3577) and 900 nM of Bodipy-GDP (Invitrogen, G22360) and incubated at room temperature for six hours. This solution is referred to as Biotinylated KRAS G12C stock solution and is then diluted to 9 nM in assay buffer to give the KRAS G12C assay solution.
as §1, with “10” for “50”, “into a” for “into”, “plate” for “plates”, “550” for “655”
Each well receives 6 μL of Biotinylated KRAS G12C assay solution using a BioRAPTR (Beckman Coulter) and is incubated at room temperature for 60 minutes in a humidified chamber. Each well then receives 3 μL of 120 nM recombinant human SOS protein and 9 mM GTP (Sigma, G8877) in assay buffer and is incubated at room temperature for 60 minutes in a humidified chamber.
as §2, with “reader: Excitation filter=340 nm; emission 1=495 nm; emission 2=520 nm;” for “reader:”, “mirror=D400/D505;” for “mirror=LANCE/DELFIA DUAL/Bias; Emission1=615 nm; Emission2=665 nm;”, “time=100 μs.” for “time=60 s.”, “520” for “665”, “495” for “615”

Compound COC1CCN(C/C=C/C(=O)N2CCN(c3nc(OC[C@@]45CCCN4C[C@H](F)C5)nc4c3COC(c3c(F)cc(F)c5ccc(N)nc35)C4)C[C@@H]2CC#N)CC1 (single isomer, unassigned) [Example 23a] has an IC50 [1] of over 50000 nM and an IC50 [2] of 131 nM.

COC1CCN(C/C=C/C(=O)N2CCN(c3nc(OC[C@@]45CCCN4C[C@H](F)C5)nc4c3COC(c3c(F)cc(F)c5ccc(N)nc35)C4)C[C@@H]2CC#N)CC1 (single isomer, unassigned) [Example 23b] gave an IC50 [1] of 12700 nM and an IC50 [2] of 16 nM.

Compound C#Cc1cccc2cccc([C@@H]3Cc4nc(OC[C@@]56CCCN5C[C@H](F)C6)nc(N5CCN(C(=O)/C=C/CN6CCC(OC)CC6)[C@@H](CC#N)C5)c4CO3)c12 (single isomer, unassigned) [Example 25b] has an IC50 [1] of 74 nM and an IC50 [2] of 1.6 nM.

COC1CCN(C/C=C/C(=O)N2CCN(c3nc(OC[C@@]45CCCN4C[C@H](F)C5)nc4c3COC(c3nc(N)cc(C)c3C(F)(F)F)C4)C[C@@H]2CC#N)CC1 (stereo partly drawn) [Example 22, 2-((2S)-4-(7-(6-amino-4-methyl-3-(trifluoromethyl)-pyridin-2-yl)-2-(((2R,7aS)-2-fluorotetrahydro-1H-pyr-rolizin-7a(5H)-yl)methoxy)-7,8-dihydro-5H-pyrano[4,3-d]pyrimidin-4-yl)-1-((E)-4-(4-methoxypiperidin-1-yl)-but-2-enoyl)piperazin-2-yl)-acetonitrile] showed an IC50 [1] of 122 nM and an IC50 [2] of 5.6 nM.

C#Cc1cccc2cccc(C3Cc4nc(OC[C@]5(CO)CC5(F)F)nc(N5CCN(C(=O)/C=C/CN6CCC(OC)CC6)[C@@H](CC#N)C5)c4CO3)c12 (stereo partly drawn) [Example 24, 2-((2S)-4-(2-(((R)-2,2-difluoro-1-(hydroxymethyl)cyclopropyl)methoxy)-7-(8-ethynylnaphthalen-1-yl)-7,8-dihydro-5H-pyrano[4,3-d]pyrimidin-4-yl)-1-((E)-4-(4-methoxypiperidin-1-yl)but-2-enoyl)piperazin-2-yl)acetonitrile] showed an IC50 [1] of over 50000 nM and an IC50 [2] of 55 nM.

For COC1CCN(C/C=C/C(=O)N2CCN(c3nc(OC[C@@]45CCCN4C[C@H](F)C5)nc4c3CCC3(CCCc5ccccc53)O4)C[C@@H]2CC#N)CC1 (stereo partly drawn) [Example 26, 2-((2S)-4-(2′-(((2R,7aS)-2-fluorotetrahydro-1H-pyrrolizin-7a(5H)-yl)methoxy)-3,4,5′,6′-tetrahydro-2H-spiro[naphthalene-1,7′-pyrano[2,3-d]pyrimidin]-4′-yl)-1-((E)-4-(4-methoxypiperidin-1-yl)but-2-enoyl)piperazin-2-yl)acetonitrile], the IC50 [1] was 48800 nM and the IC50 [2] was 80.8 nM.
